Experimental findings from patent US20130231309A1, “TREATMENT OF INFLAMMATION AND ORGAN DYSFUNCTION” (THE REGENTS OF THE UNIVERSITY OF CALIFORNIA, priority 2005, published 2013) are described below.

The subject of test [1] is MMP-1 (collagenase-1) and MMP-9 (gelatinase B). The experiment in a line: In-vivo zymography of mesentery with fluorogenic substrate. Details: species or system rat. To be noted: EDTA 5 mM applied to mesentery. The procedure: Measurement of MMP-1,9 activity was obtained by superfusion of the mesentery with fluorogenic substrate (0.5 μmol/L; catalogue number D2293, Sigma-Aldrich Inc., St. Louis, Mo.) added to the suffusate. The substrate was cleaved by MMP-1 (collagenase-1) and MMP-9 (gelatinase B). The mesentery was loaded with substrate 10 minutes prior to image collection and continuously suffused with substrate throughout the experiment. The associated fluorescence was visualized by epi-illumination at 280 nm passing through a 340 nm emission filter on a fluorescent intravital microscope (Leica), and recorded digitally for measurement of fluorescent intensity. Light intensity of the emitted fluorescent light was recorded in digital units (1-256) after subtraction of background intensity in the absence of the tissue with standardized microscope settings. Reproducibility of these measurements as determined by repeated measurements on the same specimen was within 3%.

The subject of test [2] is plasma proteases (metallo-, serine, acid and sulfhydryl proteases). As to the kind of experiment: Plasma protease activity (fluorescent protease assay kit, Enzchek). Type of test: in vivo, rat. To be noted: after MMP inhibition for 12 weeks, age 30 weeks. The procedure:
Fresh plasma samples were frozen (−60 C) until measurements were taken. On the day of the experiment, the samples were unfrozen and tested simultaneously for overall protease activity with fluorescent protease assay kit (Enzchek, Cat #E-6638, Molecular Probes). The substrate was cleaved by a range of proteases (metallo-, serine, acid and sulfhydryl proteases). Protease activity was determined from fluorescent intensity after peptide cleavage (in fluorescent units). In another experiment, and in order to explore the utility of chronic protease inhibition, a group of mature normotensive Wistar Kyoto rats (as well as a cohort of spontaneously hypertensive rats) were treated with a broad acting metafloproteases inhibitor (doxycycline, 55 mg/liter in drinking water, average consumption ˜5.4 mg/kg/day) over a period of 12 weeks until the age of 30 weeks.

Test [3] in a line: WKY and SHR central hemodynamics (arterial blood pressure via femoral artery catheter, heart rate) after chronic doxycycline. To be noted: for Mean Blood Pressure: doxycycline 55 mg/liter in drinking water (~5.4 mg/kg/day); for Diastolic Blood Pressure / Heart Rate / Systolic Blood Pressure: doxycycline in drinking water; for Mean Arterial Blood Pressure during Chronic MMP Inhibition: after MMP inhibition for 12 weeks, age 30 weeks. Type of test: in vivo, rat. The protocol: Selected WKY and SHR were treated with doxycycline (55 mg/liter in drinking water, average consumption ˜5.4 mg/kg/day, West-Ward Pharmaceutical Corp., Eatontown, N.J.) for a period of 24 weeks. It should be noted that lower and higher concentrations are also effective. A range of effective does of about 1.0-20.0 mg/kg/day, resulting from the dissolution of about 5.5-220 mg of an MMP inhibitor per liter, may also be used to produce an effective result. Narrower ranges of MMP solute may also be used, for example, 75-180 mg, and 100 mg-150 mg. The ileocecal portion of the mesentery was prepared as described in Delano and Schmid-Schonbein, “The Glucocorticoid and Mineralocorticoid Receptor Distribution in a Microvascular Network of the Spontaneously Hypertensive Rat.” Briefly, arterial blood pressure was recorded via a femoral artery catheter. Individual sectors of mesentery were exposed via an abdominal midline incision while superfused with Krebs-Henseleit buffer (37° C., pH=7.4). The blood pressure of WKY and SHR was reduced by doxycycline treatment as shown below in Table 1, a trend that was detectable in terms of systolic, diastolic or mean blood pressure. […] In another experiment, and in order to explore the utility of chronic protease inhibition, a group of mature normotensive Wistar Kyoto rats (as well as a cohort of spontaneously hypertensive rats) were treated with a broad acting metafloproteases inhibitor (doxycycline, 55 mg/liter in drinking water, average consumption ˜5.4 mg/kg/day) over a period of 12 weeks until the age of 30 weeks.

Test [4] is described as follows: Thymus weight normalized to body weight. Type of test: in vivo, rat. The note with it: chronic doxycycline, n = 5. The text has this:
The reduced apoptosis in the thymus by MMP blockade is also confirmed by direct measurements of the organ weight (shown in Table 6).

Test [5] in a line: Blood cell counts (hematocrit, total leukocyte count). It counts as in vivo, rat. To be noted: for Leukocyte Count: doxycycline in drinking water. The procedure:
Selected WKY and SHR were treated with doxycycline (55 mg/liter in drinking water, average consumption ˜5.4 mg/kg/day, West-Ward Pharmaceutical Corp., Eatontown, N.J.) for a period of 24 weeks. It should be noted that lower and higher concentrations are also effective. A range of effective does of about 1.0-20.0 mg/kg/day, resulting from the dissolution of about 5.5-220 mg of an MMP inhibitor per liter, may also be used to produce an effective result. Narrower ranges of MMP solute may also be used, for example, 75-180 mg, and 100 mg-150 mg. Fresh leukocytes were fixed on a blood smear in whole blood (using heparin as anticoagulant, 10 U/ml) with formalin solution and […] (10%, neutral buffered, 1 hr). Total leukocyte count was determined with a hemocytometer, and hematocrit was centrifuged in microhematocrit tubes. Neutrophils were separated in a density gradient (Histopaque-1077, Sigma Aldrich, spun at 42 g for 5 min).

Test [6] deals with apoptotic cells in thymus, kidney, skeletal muscle. The experiment in a line: Apoptosis by TUNEL / propidium iodide labeling of frozen tissue sections. To be noted: chronic doxycycline; for Fraction Of Apoptotic Cells, Thymus: tissue area of 10,000 μm^2. Type of test: in vivo, rat. The procedure: A subsequent study was performed to consider the reduction of cell apoptosis after chronic MMP inhibition. In addition to the dramatic reduction of blood pressure, free radical production, membrane receptor cleavage and other pathophysiological parameters (described elsewhere) that point towards organ injury in the SHR, cell apoptosis was also considered after MMP inhibition. […] For this purpose, a novel digital technique was introduced to determine nuclear fragmentation on freshly-harvested frozen tissue sections labeled for DNA breaks with the TUNEL technique and with propidium iodide (PI) for the detection of cell nuclei (see FIG. 9). […] PI-positive nuclei (B) are used to identify the total number of cells in the fields. Their image is superimposed on the bright field image of TUNEL-positive nuclei (dark brown color in A) to determine digitally the light absorption due to the TUNEL label (shown in green in panels C) and the level of apoptosis (C).

With `O=C(O)CN(CCN(CC(=O)O)CC(=O)O)CC(=O)O` [EDTA, ethylenediaminetetraacetic acid], the “Fluorescent intensity generated by the fluorogenic substrate” value in test [1] is recorded as “undetectable”.

As to `C[C@H]1c2cccc(O)c2C(=O)C2=C(O)[C@]3(O)C(=O)C(C(N)=O)=C(O)[C@@H](N(C)C)[C@@H]3[C@@H](O)[C@@H]21` [doxycycline], the “Plasma Protease Activity During Chronic MMP Inhibition” value amounted to 472 ± 24 FU in test [2] (Spontaneously Hypertensive rat) and 413 ± 40 FU in test [2] (Wistar Kyoto rat). Also, the “Mean Blood Pressure” value in test [3] (SHR, n = 7) stood at 126.3 ± 13.5 mmHg; in test [3] (WKY rats, n = 6), 95.7 ± 8.5 mmHg. Also, the “Diastolic Blood Pressure” value in test [3] (SHR) is listed as 99.4 ± 17.3 mmHg; in test [3] (WKY rats) it was 77.4 ± 6.8 mmHg. Also, the “Heart Rate” value is reported as 398 ± 60 beats/min in test [3] (SHR) and 364 ± 30 beats/min in test [3] (WKY rats). The “Systolic Blood Pressure” value was 161.9 ± 14.5 mmHg in test [3] (SHR) and 125.3 ± 10.6 mmHg in test [3] (WKY rats). The “Mean Arterial Blood Pressure during Chronic MMP Inhibition” value in test [3] (Spontaneously Hypertensive rat) worked out at 126.3 ± 13.5 mmHg; in test [3] (Wistar Kyoto rat), 95.7 ± 8.5 mmHg. The “Arterial pressure after treatment, relative to the Wistar rat” value in test [3] (WKY rats, Wistar rat about 105 mmHg) was below 105 mmHg. The results for the “Thymus Weight Normalized With Respect To Body Weight” value in test [4] (SHR) and in test [4] (WKY) were 87.4 ± 3.3 mg/100 g body wt and 81.4 ± 7.4 mg/100 g body wt, respectively. Moreover, the “Leukocyte count after treatment as share of its usually high count” value in test [5] (SHR group) is given as “less than 50%”. Also, the “Leukocyte Count” value was 2532 ± 574 in test [5] (SHR) and 2737 ± 272*, ** in test [5] (WKY rats). The “Fraction Of Apoptotic Cells, Kidney” value in test [6] (SHR) is on record as 12.8 ± 5.2%; in test [6] (WKY), 5.1 ± 3.5%. The entries for the “Fraction Of Apoptotic Cells, Skeletal muscle” value in test [6] (SHR) and in test [6] (WKY) were 1.7 ± 2.4 % and 1.4 ± 1.3%, respectively. For the same molecule, the “Fraction Of Apoptotic Cells, Thymus” value in test [6] (SHR) is on record as 13.8 ± 9.1 %; in test [6] (WKY), 4.7 ± 3.0%.
